Reference: patent publication US10881642B2, “Autophagy enhancer and use thereof” (Industry-Academic Cooperation Foundation, Yonsei University, priority 2016, dated 2021)

Test system: HeLa cells
Assay: Autophagic flux in HeLa cells (RFP-LC3/LAMP1, mRFP-GFP-LC3, FYVE-dsRed, immunoblot)
Type: cell-based
Protocol: FIG. 2 indicates the results of the Hela Cells treated with Compound of formula I (hereinafter referred to as MSL) showing the increase of the autophagic flux in the cells treated. FIG. 2A indicates the results of the experiments in which HeLa cells transfected with RFP-LC3 plasmid for 48 hrs were treated with compound MSL of the present disclosure or vehicle control for 1 hr, which were then […] with antibody against LAMP1. The arrows indicate puncta. LC3 or the number of puncta was also indicated as bar graph. FIG. 2B indicates the results of the experiments in which HeLa cells transfected with mRFP-GFP-LC3 plasmid for 48 hrs were treated with compound MSL of the present disclosure or vehicle control for 1 hr, in which autophagosome (yellow puncta) or autophagolysosome (red puncta) were measured using Image J software. The number of puncta was indicated as bar graph. FIG. 2C indicates the results of the experiments in which HeLa cells transfected with FYVE-dsRed plasmid for 48 hrs were treated with compound MSL of the present disclosure or vehicle control for 1 hr, in which the number of FYVE-dsRed vesicles was measured. The measured value were average of the values obtained from at least 3 images. Error bars, S.D. **, P<0.01; ***, P<0.001.
FIG. 10 is the result of the experiments using compound of formula 2 (hereinafter referred to as MSL-7) of the present disclosure as an autophagic enhancer. FIG. 10A is the result of immuneblot using the antibodies indicated using Hela cells treated with MSL or MSL-7. FIG. 10B is the result of measuring the viability of Hela cells treated with vehicle control or various concentration of MSL-7 (50-100 μM) for 48 hrs. FIG. 10C is the result of DAPI stained nuclei of TFEB-GFP HeLa cells which were treated with vehicle control or MSL-7 for 4 hrs. The graph indicates the percentage of TFEB translocated into the nuclei. Error bars, S.D. *, P<0.05; **, P<0.01; ***, P<0.001.
FIG. 12 indicates the improvement of the metabolic profile of HFD-feed mice by MSL-7: (FIG. 12A) Confocal microscopic result of HeLa cells transfected with tandem mRFP-GFP-LC3 and treated with MSL-7 in which red puncta indicates autophagolysosome. (FIG. 12B, 12C) 8 week old male C57BL/6 mice were fed with HFD or normal chow diet (NCD) for 8 weeks, and then 50 mg/kg MSL-7 was administered three times a week for 8 weeks. Non-fasting glucose level (FIG. 12B) and body weight (FIG. 12C) were monitored. (FIG. 12D) IPGTT. (FIG. 12E) AUC curve of (FIG. 12D). (FIG. 12F) ITT. (FIG. 12G) AUC curve of (FIG. 12F).
Screening of autophagy enhancer. […] Luciferase assay. Firefly and Renilla luciferase assays were conducted using the Dual-Luciferase Reporter Assay System (Promega) according to the manufacturer's recommendation. In brief, cells were lysed in 1× lysis buffer and subjected to a single round of freezing/thawing. Firefly luciferase was determined after mixing 5 μl of lysate with 25 μl of Luciferase Assay Reagent II. Renilla luciferase was then determined after further addition of 20 ul of Stop&Glo Reagent. Cell culture and media and drugs treatment. […]

Q: How did the autophagy-enhancing activity (immunoblot, FIG. 10A) turn out when `COc1oc(-c2ccccc2Cl)nc1S(=O)(=O)c1ccccc1` [MSL-7, 2-(2-chlorophenyl)-5-methoxy-4-(phenylsulfonyl) oxazole] was run?
A: Its autophagy-enhancing activity is “definite autophagy-enhancing activity”.

Q: And the formation of autophagolysosome (mRFP-GFP-LC3, red puncta)?
A: The formation of autophagolysosome was “induced”.

Q: Which results are given for `CSc1oc(-c2ccccc2)nc1S(=O)(=O)c1ccc(F)cc1` [MSL]?
A: Recruitment of FYVE-dsRed+ vesicle (1 hr): increased; LC3+ autophagosome colocalization with lysosomal marker LAMP1 (RFP-LC3 transfected, 1 hr): positive for the lysosomal markers LAMP1; number of yellow puncta (early autophagic organelles) and red puncta (autolysosomes) (mRFP-GFP-LC3B probe, 1 hr): increases
